Holding throughout (type): binding
In assay [1] the target is T1, [SALL4 ZF2]-[compound]-[CRBN/DDB1] ternary complex (Homo sapiens, UniProt Q96SW2+Q9UJQ4).
T1 construct: SALL4 ZF2
The assay can be described thus: AlphaLISA assay for off-target recruitment detection, SALL4 ZF2. The conditions noted are these: 1 μM compound; normalized to Lenalidomide. The method, then: (§1) The ability of the molecular glue compounds of the invention to mediate the proximity of CRBN with its known neo-substrates (shown in Table 3) was assessed using AlphaLISA to detect the formation of a [neo-substrate]-[compound of formula (I)]-[CRBN/DDB1] ternary complex.
(§2) Two types of protein solution were prepared: • neo-substrate, 40 μg/ml AlphaScreen Donor Beads (Table 3) in PBS (10 mM phosphate buffer, 137 mM NaCL, 2.7 mM KCl, pH 7.4) buffer supplemented with Tween-20 (Table 3) and 1 mM DTT, • 200 nM 6×His-CRBN/DDB1, 40 μg/ml AlphaLISA Anti-6×His Acceptor beads in PBS buffer with Tween-20 (Table 3) and 1 mM DTT.
(§3) The prepared solutions were incubated at room temperature for 30 min and then the solution containing the donor beads was mixed with the solution containing the acceptor beads.
(§4) The tested compounds were dispensed onto a white 384-well AlphaPlate 384 SW. DMSO was backfilled to all wells, resulting in a final DMSO content of 2%. Wells containing only DMSO served as background. Next, 10 μl of solution with donor and acceptor beads was added to the wells.
(§5) The plate was sealed with transparent film and shaken using a VibroTurbulator for 60 sec at room temperature, level 3. The plate was then spun down shortly (10 sec, 1000 rcf, room temperature) and incubated at 25° C. for 30 min.
(§6) The read-out was performed with PerkinElmer Enspire Multimode Plate Reader (method for AlphaLISA 384-well low volume, Filterset: λexc=680 nm, λem=615 nm).
(§7) The results were analyzed as follows: • 1) an average of luminescence for background signal was calculated and used as a negative control; • 2) an average of the maximum measured luminescence for reference compound (Table 3) was calculated and used as an internal positive control; • 3) raw luminescence values were normalized against positive and negative controls; • 4) Normalized responses to reference molecular glue were determined.
In general terms: Bead proximity is the source of the signal in Alpha formats.

Assay [2] deals with [CK1α]-[compound]-[CRBN/DDB1] ternary complex (Homo sapiens, UniProt P48729+Q96SW2). The assay is described as follows: AlphaLISA assay for off-target recruitment detection, CK1α. The conditions noted are these: 1 μM compound; normalized to FPFT-2216. The method, then: as §1, §2, §3, §4, §5, §6, §7
In assay [3] the target is T2, [IKZF2 ZF2]-[compound]-[CRBN/DDB1] ternary complex (Homo sapiens, UniProt Q96SW2+Q9UKS7).
T2 construct: IKZF2 ZF2
The assay can be described thus: AlphaLISA assay for off-target recruitment detection, IKZF2 ZF2. The conditions noted are these: 1 μM compound; normalized to Helios modulator. The method, then: as §1, §2, §3, §4, §5, §6, §7

The target of assay [4] is T3, [IKZF1 ZF2]-[compound]-[CRBN/DDB1] ternary complex (Homo sapiens, UniProt Q13422+Q96SW2).
T3 construct: IKZF1 ZF2
The assay can be described thus: AlphaLISA assay for off-target recruitment detection, IKZF1 ZF2. The conditions noted are these: 1 μM compound; normalized to Lenalidomide. As for the experimental part: as §1, §2, §3, §4, §5, §6, §7

T3 sequence (Q13422 145-167 limits assumed): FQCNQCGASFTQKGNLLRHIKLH
T3 sequence (Q96SW2 whole entry): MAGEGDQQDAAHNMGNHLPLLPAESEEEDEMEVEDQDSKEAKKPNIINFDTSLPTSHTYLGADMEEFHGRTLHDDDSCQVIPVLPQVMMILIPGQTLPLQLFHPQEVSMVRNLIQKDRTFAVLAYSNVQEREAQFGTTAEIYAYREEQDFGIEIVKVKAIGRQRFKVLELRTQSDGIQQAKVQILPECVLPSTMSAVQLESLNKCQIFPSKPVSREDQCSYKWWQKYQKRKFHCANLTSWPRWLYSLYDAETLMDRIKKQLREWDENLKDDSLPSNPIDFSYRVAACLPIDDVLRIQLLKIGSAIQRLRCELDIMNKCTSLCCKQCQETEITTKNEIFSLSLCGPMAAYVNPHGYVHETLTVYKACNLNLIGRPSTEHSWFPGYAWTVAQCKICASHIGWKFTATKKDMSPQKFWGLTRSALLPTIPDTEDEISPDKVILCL
T3 sequence (Q16531 whole entry partner): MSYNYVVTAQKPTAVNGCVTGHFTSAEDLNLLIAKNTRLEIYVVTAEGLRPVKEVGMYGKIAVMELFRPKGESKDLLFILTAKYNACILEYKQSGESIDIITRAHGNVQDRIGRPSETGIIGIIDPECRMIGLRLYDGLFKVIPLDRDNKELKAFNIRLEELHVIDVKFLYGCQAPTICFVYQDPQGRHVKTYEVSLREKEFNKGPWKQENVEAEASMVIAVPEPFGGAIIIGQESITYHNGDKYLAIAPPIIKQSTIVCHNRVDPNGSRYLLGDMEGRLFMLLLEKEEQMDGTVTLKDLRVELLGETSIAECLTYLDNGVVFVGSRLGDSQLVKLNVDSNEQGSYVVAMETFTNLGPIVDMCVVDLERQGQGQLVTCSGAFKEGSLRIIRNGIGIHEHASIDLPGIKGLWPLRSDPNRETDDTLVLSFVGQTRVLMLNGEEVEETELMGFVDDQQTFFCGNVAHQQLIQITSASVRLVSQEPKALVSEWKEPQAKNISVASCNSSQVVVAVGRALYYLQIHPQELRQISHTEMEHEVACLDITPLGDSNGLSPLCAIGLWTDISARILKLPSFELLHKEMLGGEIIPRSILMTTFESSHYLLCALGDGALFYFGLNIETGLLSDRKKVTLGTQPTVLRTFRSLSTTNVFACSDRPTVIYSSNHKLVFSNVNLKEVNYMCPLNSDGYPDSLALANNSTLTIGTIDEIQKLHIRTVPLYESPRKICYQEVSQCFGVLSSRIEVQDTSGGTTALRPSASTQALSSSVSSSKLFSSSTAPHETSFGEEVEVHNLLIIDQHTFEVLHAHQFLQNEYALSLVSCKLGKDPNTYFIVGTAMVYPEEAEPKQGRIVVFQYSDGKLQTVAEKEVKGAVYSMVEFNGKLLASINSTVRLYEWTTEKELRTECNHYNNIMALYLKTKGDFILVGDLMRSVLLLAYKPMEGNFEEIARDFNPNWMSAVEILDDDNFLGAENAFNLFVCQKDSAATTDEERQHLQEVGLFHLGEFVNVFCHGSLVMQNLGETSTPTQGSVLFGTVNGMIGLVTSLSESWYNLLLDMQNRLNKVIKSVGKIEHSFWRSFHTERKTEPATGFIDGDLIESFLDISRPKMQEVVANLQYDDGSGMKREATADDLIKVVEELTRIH
[CK1α]-[compound]-[CRBN/DDB1] ternary complex, sequence (P48729 whole entry): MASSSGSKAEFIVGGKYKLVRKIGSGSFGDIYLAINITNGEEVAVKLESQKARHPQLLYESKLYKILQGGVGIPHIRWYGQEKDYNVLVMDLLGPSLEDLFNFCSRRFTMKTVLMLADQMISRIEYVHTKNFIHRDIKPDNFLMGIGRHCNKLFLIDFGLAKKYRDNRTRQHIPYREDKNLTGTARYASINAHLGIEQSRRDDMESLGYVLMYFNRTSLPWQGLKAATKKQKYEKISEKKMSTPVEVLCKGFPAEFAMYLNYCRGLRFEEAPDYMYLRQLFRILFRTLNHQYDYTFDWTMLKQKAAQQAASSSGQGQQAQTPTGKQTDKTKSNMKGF
[CK1α]-[compound]-[CRBN/DDB1] ternary complex, sequence (Q96SW2 whole entry): as the sequence (Q96SW2 whole entry) above
[CK1α]-[compound]-[CRBN/DDB1] ternary complex, sequence (Q16531 whole entry partner): as the sequence (Q16531 whole entry partner) above
T1 sequence (Q9UJQ4 410-432 limits assumed): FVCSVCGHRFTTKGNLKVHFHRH
T1 sequence (Q96SW2 whole entry): as the sequence (Q96SW2 whole entry) above
T1 sequence (Q16531 whole entry partner): as the sequence (Q16531 whole entry partner) above
T2 sequence (Q9UKS7 140-162 limits assumed): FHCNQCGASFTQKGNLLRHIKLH
T2 sequence (Q96SW2 whole entry): as the sequence (Q96SW2 whole entry) above
T2 sequence (Q16531 whole entry partner): as the sequence (Q16531 whole entry partner) above

Consider `Cc1ccc(NC(=O)NCc2ccc3c(c2)CN(C2CCC(=O)NC2=O)C3=O)cc1Cl` (stereo not shown) [CC-885, reference compound], for which the “Normalized ternary complex response, SALL4 ZF2” value in assay [1] was “A (A≥50%)”. In addition, the “Normalized ternary complex response, CK1α” value in assay [2] is given as “C (10%≤C<25%)”. In addition, the “Normalized ternary complex response, IKZF2 ZF2” value in assay [3] is reported as “A (A≥50%)”. For the same compound, the “Normalized ternary complex response, IKZF1 ZF2” value in assay [4] was “A (A≥50%)”.

The values are drawn from patent US20260232682A1, “GSPT1 DEGRADER COMPOUNDS” (Captor Therapeutics S.A., priority 2023, published 2026).
